The source of these data is US11590116B2 (THERAVANCE BIOPHARMA R&D IP, LLC, priority 2019, dated 2023).

Assay [1] concerns TGF-β-stimulated SMAD3 phosphorylation in BEAS-2B cells. The assay can be described thus: Cellular ALK5 potency assay, inhibition of TGF-β stimulated pSMAD3 formation in BEAS-2B cells. The format is cell-based. The note with it: Homo sapiens; inhibition of TGF-β stimulated pSMAD3 formation, BEAS-2B cells; read-out: BEAS2B pIC50 (converted). The essentials: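 AlphaLISA pSMAD3 read-out, beads incubated overnight. Human BEAS-2B cells: 1 h compound preincubation (37 °C, 5% CO2), then 30 min TGF-β at 10 ng/mL final, immediate lysis. Values are pIC50 relative to stimulated, compound-free baseline.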

Assay [2] deals with T1, recombinant human ALK5 (TGF-βR1) protein (Homo sapiens, UniProt P36897).
T1 construct: purchased Life Technologies PR9075A
T1 sequence (P36897 34-503): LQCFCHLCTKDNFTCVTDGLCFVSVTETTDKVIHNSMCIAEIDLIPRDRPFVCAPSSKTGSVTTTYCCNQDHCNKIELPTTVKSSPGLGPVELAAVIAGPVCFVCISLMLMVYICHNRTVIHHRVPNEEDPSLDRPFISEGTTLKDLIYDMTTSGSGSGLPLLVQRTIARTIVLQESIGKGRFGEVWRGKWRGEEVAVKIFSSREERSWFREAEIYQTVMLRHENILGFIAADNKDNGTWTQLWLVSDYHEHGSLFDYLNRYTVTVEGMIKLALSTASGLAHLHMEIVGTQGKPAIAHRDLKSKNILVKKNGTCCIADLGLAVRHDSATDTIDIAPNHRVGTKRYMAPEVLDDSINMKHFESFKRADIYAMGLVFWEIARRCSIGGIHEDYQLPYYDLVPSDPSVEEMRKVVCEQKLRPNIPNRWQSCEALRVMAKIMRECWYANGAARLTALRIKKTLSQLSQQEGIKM
Description: Biochemical ALK5 (TGF-βR1) assay to measure pKi (LANCE Ultra ULight kinase assay). The following applies: apparent pKi from pIC50 by Cheng-Prusoff, read-out: ALK5 pKi (converted). The essentials:
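After a 60 min room-temperature preincubation of ALK5 with compound, phosphorylation proceeds 60 min at 37 °C on ATP addition (125 μM as 5× stock). Detection: Eu-labelled phospho-Thr1342 Topo IIα antibody in EDTA buffer, pH 7.0; emission 665 nm.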
A general note: In TR-FRET formats the signal depends on donor and acceptor labels being close together.

Turning to `Cc1nc(-c2n[nH]cc2-c2ccc3ncc(-c4nc5c(s4)CNCC5)cc3n2)ccc1F` [Compound 329, 2-[6-[3-(5-fluoro-6-methyl-2-pyridyl)-1H-pyrazol-4-yl]-1,5-naphthyridin-3-yl]-4,5,6,7-tetrahydrothiazolo[5,4-c]pyridine], the IC50 in assay [1] is 25.1 to 158 nM. Besides, the Ki in assay [2] was 0.0398 to 0.316 nM.
For the compound `Cc1cccc(-c2[nH]cnc2-c2ccc3ncc(-c4ccc(C(=O)OCC5CNC5)cn4)cc3c2)n1` [Compound 1103, azetidin-3-ylmethyl 6-[6-[5-(6-methyl-2-pyridyl)-1H-imidazol-4-yl]-3-quinolyl]pyridine-3-carboxylate], the IC50 in assay [1] is 25.1 to 158 nM. The Ki in assay [2] is under 0.0316 nM.
Regarding `Cc1cccc(-c2[nH]cnc2-c2ccc3ncc(C(=O)OCCN4CCC5NCCC5C4)cc3c2)n1` (stereo not shown) [Compound 1065, 2-(1,2,3,3a,4,6,7,7a-octahydropyrrolo[3,2-c]pyridin-5-yl)ethyl 6-[5-(6-methyl-2-pyridyl)-1H-imidazol-4-yl]quinoline-3-carboxylate], the IC50 in assay [1] is 200 to 1260 nM. Also, in assay [2], the Ki was 0.0398 to 0.316 nM.
As for `Cc1cccc(-c2[nH]cnc2-c2ccc3ncc(NC4CCC5(CC4)CNC5)cc3c2)n1` [Compound 14, N-(2-azaspiro[3.5]nonan-7-yl)-6-[5-(6-methyl-2-pyridyl)-1H-imidazol-4-yl]quinolin-3-amine], in assay [1], the IC50 was 200 to 1260 nM. Further, the Ki in assay [2] was 0.0398 to 0.316 nM.
Taken in the same sequence, the figures for `Cc1cccc(-c2n[nH]cc2-c2ccc3ncc(CCC(=O)N4CCOCC4)cc3n2)n1` [Compound 385, 3-[6-[3-(6-methyl-2-pyridyl)-1H-pyrazol-4-yl]-1,5-naphthyridin-3-yl]-1-morpholino-propan-1-one] were 25.1 to 158 nM and 0.398 to 3.16 nM.
Regarding `Cc1cccc(-c2n[nH]cc2-c2ccc3nccc(-c4cn(-c5ccccc5)nn4)c3n2)n1` [Compound 854, 2-[3-(6-methyl-2-pyridyl)-1H-pyrazol-4-yl]-8-(1-phenyltriazol-4-yl)-1,5-naphthyridine], in assay [1], the IC50 was 25.1 to 158 nM. In addition, the Ki in assay [2] is 0.0398 to 0.316 nM.
In the case of `Cc1cccc(-c2n[nH]cc2-c2ccc3ncc(-c4nc(C(=O)O)co4)cc3n2)n1` [Compound 546, 2-[6-[3-(6-methyl-2-pyridyl)-1H-pyrazol-4-yl]-1,5-naphthyridin-3-yl]oxazole-4-carboxylic acid], the IC50 in assay [1] is 1580 to 10000 nM. In addition, the Ki in assay [2] was 0.398 to 3.16 nM.
Take `Cc1nc(-c2n[nH]cc2-c2ccc3ncc(N4CCC(N(C)C)CC4)cc3n2)ccc1F` [Compound 514, 1-[6-[3-(5-fluoro-6-methyl-2-pyridyl)-1H-pyrazol-4-yl]-1,5-naphthyridin-3-yl]-N,N-dimethyl-piperidin-4-amine]: in assay [1], the IC50 is 25.1 to 158 nM. For the same compound, the Ki in assay [2] is 0.0398 to 0.316 nM.
For `Cc1cccc(-c2n[nH]cc2-c2ccc3ncc(N4CC(C)N(CCN)C(C)C4)cc3n2)n1` (stereo not shown) [Compound 283, 2-[2,6-dimethyl-4-[6-[3-(6-methyl-2-pyridyl)-1H-pyrazol-4-yl]-1,5-naphthyridin-3-yl]piperazin-1-yl]ethanamine], the IC50 in assay [1] was 200 to 1260 nM. The Ki in assay [2] is 0.0398 to 0.316 nM.
For the compound `Cc1cccc(-c2[nH]cnc2-c2ccc3ncc(C(=O)OCCN4CC5(CCNCC5)C4)cc3c2)n1` [Compound 891, 2-(2,7-diazaspiro[3.5]nonan-2-yl)ethyl 6-(5-(6-methylpyridin-2-yl)-1H-imidazol-4-yl)quinoline-3-carboxylate], the IC50 in assay [1] is 200 to 1260 nM. Besides, the Ki in assay [2] was 0.0398 to 0.316 nM.
Consider `Cc1cccc(-c2n[nH]cc2-c2ccc3ncc(C4=CCCC4)cc3n2)n1` [Compound 88, 7-(cyclopenten-1-yl)-2-[3-(6-methyl-2-pyridyl)-1H-pyrazol-4-yl]-1,5-naphthyridine], for which the IC50 in assay [1] was under 20 nM. For the same compound, in assay [2], the Ki was under 0.0316 nM.
`Cc1cccc(-c2n[nH]cc2-c2ccc3ncc(N4CCN(CCN)CC4)cc3n2)n1` [Compound 281, 2-[4-[6-[3-(6-methyl-2-pyridyl)-1H-pyrazol-4-yl]-1,5-naphthyridin-3-yl]piperazin-1-yl]ethanamine]: the IC50 in assay [1] is 200 to 1260 nM. The Ki in assay [2] was under 0.0316 nM.
For the compound `Cc1cccc(-c2[nH]cnc2-c2ccc3ncc(-c4nc(C(=O)O[C@H]5CCNC5)cs4)cc3c2)n1` [Compound 748, (S)-pyrrolidin-3-yl 2-(6-(5-(6-methylpyridin-2-yl)-1H-imidazol-4-yl)quinolin-3-yl)thiazole-4-carboxylate], in assay [1], the IC50 is 25.1 to 158 nM. Further, the Ki in assay [2] is 0.0398 to 0.316 nM.
Taken in the same sequence, the figures for `Cc1cccc(-c2[nH]cnc2-c2ccc3ncc(-c4ccc(C(=O)OCC5CNC5)cc4)cc3c2)n1` [Compound 650, azetidin-3-ylmethyl 4-[6-[5-(6-methyl-2-pyridyl)-1H-imidazol-4-yl]-3-quinolyl]benzoate] were 25.1 to 158 nM and 0.0398 to 0.316 nM.
Consider `Cc1cccc(-c2[nH]cnc2-c2ccc3ncc(C(=O)OC[C@@H]4CCCNC4)cc3c2)n1` [Compound 877, (R)-piperidin-3-ylmethyl 6-(5-(6-methylpyridin-2-yl)-1H-imidazol-4-yl)quinoline-3-carboxylate], for which the IC50 in assay [1] is 25.1 to 158 nM. The Ki in assay [2] is 0.0398 to 0.316 nM.
Turning to `Cc1cccc(-c2[nH]cnc2-c2ccc3ncc(-c4cccc(C(=O)O)c4)cc3c2)n1` [Compound 794, 3-[6-[5-(6-methyl-2-pyridyl)-1H-imidazol-4-yl]-3-quinolyl]benzoic acid], the IC50 in assay [1] is 1580 to 10000 nM. Besides, the Ki in assay [2] is 0.0398 to 0.316 nM.
With `Cc1cccc(-c2[nH]cnc2-c2ccc3ncc(-c4ncc(C(=O)OCCN5CCNCC5)s4)cc3c2)n1` [Compound 1187, 2-piperazin-1-ylethyl 2-[6-[5-(6-methyl-2-pyridyl)-1H-imidazol-4-yl]-3-quinolyl]thiazole-5-carboxylate], the IC50 in assay [1] is 25.1 to 158 nM. The Ki in assay [2] was 0.0398 to 0.316 nM.
Turning to `Cc1cccc(-c2[nH]cnc2-c2ccc3ncc(C(=O)OC[C@H]4CCCCN4)cc3c2)n1` [Compound 884, (R)-piperidin-2-ylmethyl 6-(5-(6-methylpyridin-2-yl)-1H-imidazol-4-yl)quinoline-3-carboxylate], the IC50 in assay [1] was 25.1 to 158 nM. In addition, the Ki in assay [2] is 0.398 to 3.16 nM.
As to `Cc1cccc(-c2[nH]cnc2-c2ccc3ncc(-c4nc(C(=O)OCCN5CC[C@@H](N)C5)cs4)cc3c2)n1` [Compound 1246, 2-[(3R)-3-aminopyrrolidin-1-yl]ethyl 2-[6-[5-(6-methyl-2-pyridyl)-1H-imidazol-4-yl]-3-quinolyl]thiazole-4-carboxylate], the IC50 in assay [1] was 200 to 1260 nM. In addition, the Ki in assay [2] is 0.0398 to 0.316 nM.
In the case of `Cc1cccc(-c2n[nH]cc2-c2ccc3ncc(-c4nc(CO)co4)cc3n2)n1` [Compound 32, [2-[6-[3-(6-methyl-2-pyridyl)-1H-pyrazol-4-yl]-1,5-naphthyridin-3-yl]oxazol-4-yl]methanol], the IC50 in assay [1] is 25.1 to 158 nM. For the same compound, in assay [2], the Ki is under 0.0316 nM.
With `Cc1cccc(-c2nn(C3CCCCO3)cc2-c2ccc3ncc(-c4cnoc4)cc3n2)n1` (stereo not shown) [Compound 203, 4-[6-[3-(6-methyl-2-pyridyl)-1-tetrahydropyran-2-yl-pyrazol-4-yl]-1,5-naphthyridin-3-yl]isoxazole], in assay [1], the IC50 was 200 to 1260 nM. The Ki in assay [2] was 0.398 to 3.16 nM.
As for `CNCCn1ccc(-c2cnc3ccc(-c4c[nH]nc4-c4cccc(C)n4)nc3c2)n1` [Compound 229, N-methyl-2-[3-[6-[3-(6-methyl-2-pyridyl)-1H-pyrazol-4-yl]-1,5-naphthyridin-3-yl]pyrazol-1-yl]ethanamine], in assay [1], the IC50 is 25.1 to 158 nM. Moreover, the Ki in assay [2] was under 0.0316 nM.
On the same counts, the results for `Cc1cccc(-c2[nH]cnc2-c2ccc3ncc(-c4nccc(C(=O)O[C@H]5CCNC5)n4)cc3c2)n1` [Compound 1073, [(3S)-pyrrolidin-3-yl] 2-[6-[5-(6-methyl-2-pyridyl)-1H-imidazol-4-yl]-3-quinolyl]pyrimidine-4-carboxylate] are 1580 to 10000 nM and 0.398 to 3.16 nM.
Take `Cc1cccc(-c2n[nH]cc2-c2ccc3ncc(-c4nc5n(n4)CCNC5)cc3c2)n1` [Compound 315, 6-[3-(6-methyl-2-pyridyl)-1H-pyrazol-4-yl]-3-(5,6,7,8-tetrahydro-[1,2,4]triazolo[1,5-a]pyrazin-2-yl)quinoline]: the IC50 in assay [1] was 25.1 to 158 nM. Moreover, the Ki in assay [2] is 0.0398 to 0.316 nM.
`Cc1cccc(-c2n[nH]cc2-c2ccc3ncc(C(N)=O)cc3n2)n1` [Compound 607, 6-[3-(6-methyl-2-pyridyl)-1H-pyrazol-4-yl]-1,5-naphthyridine-3-carboxamide]: the IC50 in assay [1] was 25.1 to 158 nM. For the same compound, in assay [2], the Ki was 0.0398 to 0.316 nM.
As for `Cc1cccc(-c2n[nH]cc2-c2ccc3ncc(-c4ncc5n4CCNC5)cc3n2)n1` [Compound 143, 2-[3-(6-methyl-2-pyridyl)-1H-pyrazol-4-yl]-7-(5,6,7,8-tetrahydroimidazo[1,5-a]pyrazin-3-yl)-1,5-naphthyridine], in assay [1], the IC50 was 200 to 1260 nM. Besides, the Ki in assay [2] was 0.0398 to 0.316 nM.
